Measurements: PubChem BioAssay AID2060888 (Molecular Pharmacology Branch, DTP, NCI, 2025)

System: 695427-040-R-J1-PDC complex spheroid viability
Experiment: Anticancer human tumor 695427-040-R-J1-PDC patient-derived colon adenocarcinoma cell line growth inhibition [RAS]
Conditions: for IC50: curve of first compound; for viability, T/C: stronger effect = lower value
Method in brief: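 Agents were tested in combination matrices in half-log decrements from a top concentration at or near clinical Cmax (10 microM if undetermined). Targets were multi-cell spheroids of tumour lines plus HUVEC and MSC stromal cells.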

[1] = second compound 0.000949 µM, first compound 0.0316 µM
[2] = second compound 0.000949 µM, first compound 0.1 µM
[3] = second compound 0.000949 µM, first compound 0.316 µM
[4] = second compound 0.000949 µM, first compound 1 µM
[5] = second compound 0.000949 µM, first compound 3.16 µM
[6] = second compound 0.000949 µM, first compound 10 µM
[7] = second compound 0.003 µM, first compound 0.0316 µM
[8] = second compound 0.003 µM, first compound 0.1 µM
[9] = second compound 0.003 µM, first compound 0.316 µM
[10] = second compound 0.003 µM, first compound 1 µM
[11] = second compound 0.003 µM, first compound 3.16 µM
[12] = second compound 0.003 µM, first compound 10 µM
[13] = second compound 0.00949 µM, first compound 0.0316 µM
[14] = second compound 0.00949 µM, first compound 0.1 µM
[15] = second compound 0.00949 µM, first compound 0.316 µM
[16] = second compound 0.00949 µM, first compound 1 µM
[17] = second compound 0.00949 µM, first compound 3.16 µM
[18] = second compound 0.00949 µM, first compound 10 µM
[19] = second compound 0.03 µM, first compound 0.0316 µM
[20] = second compound 0.03 µM, first compound 0.1 µM
[21] = second compound 0.03 µM, first compound 0.316 µM
[22] = second compound 0.03 µM, first compound 1 µM
[23] = second compound 0.03 µM, first compound 3.16 µM
[24] = second compound 0.03 µM, first compound 10 µM
[25] = second compound 0.0949 µM, first compound 0.0316 µM
[26] = second compound 0.0949 µM, first compound 0.1 µM
[27] = second compound 0.0949 µM, first compound 0.316 µM
[28] = second compound 0.0949 µM, first compound 1 µM
[29] = second compound 0.0949 µM, first compound 3.16 µM
[30] = second compound 0.0949 µM, first compound 10 µM
[31] = second compound 0.3 µM, first compound 0.0316 µM
[32] = second compound 0.3 µM, first compound 0.1 µM
[33] = second compound 0.3 µM, first compound 0.316 µM
[34] = second compound 0.3 µM, first compound 1 µM
[35] = second compound 0.3 µM, first compound 3.16 µM
[36] = second compound 0.3 µM, first compound 10 µM
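Note: viability read after seven days of drug exposure.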
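Throughout, for viability, T/C: 100% = DMSO vehicle control viability.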

Cc1nc(N2CCC3(CC2)COC(C)C3N)c(CO)nc1Sc1ccnc(N)c1Cl (stereo unspecified) + CCn1c(-c2cc(N3CCN(C)CC3)cnc2C(C)OC)c2c3cc(ccc31)-c1csc(n1)CC(NC(=O)C1CC1C)C(=O)N1CCCC(N1)C(=O)OCC(C)(C)C2
IC50 (second compound 0.000949 µM): 3420 nM
IC50 (second compound 0.003 µM): 1230 nM
IC50 (second compound 0.00949 µM): 613 nM
IC50 (second compound 0.03 µM): 117 nM
IC50 (second compound 0.0949 µM): < 31.6 nM
IC50 (second compound 0.3 µM): < 31.6 nM
viability, T/C [1]: 98.8%
viability, T/C [2]: 93.1%
viability, T/C [3]: 84.9%
viability, T/C [4]: 79.5%
viability, T/C [5]: 49.7%
viability, T/C [6]: 26.9%
viability, T/C [7]: 86.3%
viability, T/C [8]: 76.7%
viability, T/C [9]: 52.7%
viability, T/C [10]: 53.2%
viability, T/C [11]: 49.9%
viability, T/C [12]: 32.6%
viability, T/C [13]: 71%
viability, T/C [14]: 69.8%
viability, T/C [15]: 49.6%
viability, T/C [16]: 50.9%
viability, T/C [17]: 33.9%
viability, T/C [18]: 30.6%
viability, T/C [19]: 63.9%
viability, T/C [20]: 42.9%
viability, T/C [21]: 48.2%
viability, T/C [22]: 32.4%
viability, T/C [23]: 29.8%
viability, T/C [24]: 17.7%
viability, T/C [25]: 46.5%
viability, T/C [26]: 40.5%
viability, T/C [27]: 25.2%
viability, T/C [28]: 29.1%
viability, T/C [29]: 23%
viability, T/C [30]: 18.9%
viability, T/C [31]: 27.5%
viability, T/C [32]: 32.3%
viability, T/C [33]: 28.7%
viability, T/C [34]: 27.7%
viability, T/C [35]: 24.4%
viability, T/C [36]: 16%

NC1c2ccccc2OC12CCN(c1cnc3c(N4CCCc5ncccc54)n[nH]c3n1)CC2 (stereo unspecified) + CCn1c(-c2cc(N3CCN(C)CC3)cnc2C(C)OC)c2c3cc(ccc31)-c1csc(n1)CC(NC(=O)C1CC1C)C(=O)N1CCCC(N1)C(=O)OCC(C)(C)C2
IC50 (second compound 0.000949 µM): 375 nM
IC50 (second compound 0.003 µM): 209 nM
IC50 (second compound 0.00949 µM): 72 nM
IC50 (second compound 0.03 µM): < 31.6 nM
IC50 (second compound 0.0949 µM): < 31.6 nM
IC50 (second compound 0.3 µM): < 31.6 nM
viability, T/C [1]: 74.8%
viability, T/C [2]: 70.1%
viability, T/C [3]: 53.9%
viability, T/C [4]: 29.2%
viability, T/C [5]: 32.4%
viability, T/C [6]: 24.9%
viability, T/C [7]: 73.9%
viability, T/C [8]: 59.2%
viability, T/C [9]: 47%
viability, T/C [10]: 24.4%
viability, T/C [11]: 23.5%
viability, T/C [12]: 20.5%
viability, T/C [13]: 62.2%
viability, T/C [14]: 45.3%
viability, T/C [15]: 22.5%
viability, T/C [16]: 25.1%
viability, T/C [17]: 18.2%
viability, T/C [18]: 15.8%
viability, T/C [19]: 45.4%
viability, T/C [20]: 36%
viability, T/C [21]: 27.9%
viability, T/C [22]: 21.1%
viability, T/C [23]: 13.2%
viability, T/C [24]: 16.8%
viability, T/C [25]: 39.2%
viability, T/C [26]: 27.3%
viability, T/C [27]: 22.3%
viability, T/C [28]: 15.2%
viability, T/C [29]: 14.1%
viability, T/C [30]: 13.1%
viability, T/C [31]: 27.5%
viability, T/C [32]: 27%
viability, T/C [33]: 20.7%
viability, T/C [34]: 14.5%
viability, T/C [35]: 10.2%
viability, T/C [36]: 15.5%

Nc1ccn(C2OC(CO)C(O)C2(F)F)c(=O)n1 (stereo unspecified) + CCn1c(-c2cc(N3CCN(C)CC3)cnc2C(C)OC)c2c3cc(ccc31)-c1csc(n1)CC(NC(=O)C1CC1C)C(=O)N1CCCC(N1)C(=O)OCC(C)(C)C2
IC50 (second compound 0.000949 µM): > 1000 nM
IC50 (second compound 0.003 µM): 524 nM
IC50 (second compound 0.00949 µM): 593 nM
IC50 (second compound 0.03 µM): 112 nM
IC50 (second compound 0.0949 µM): < 3.16 nM
IC50 (second compound 0.3 µM): < 3.16 nM
viability, T/C (second compound 0.000949 µM, first compound 0.00316 µM): 69.9%
viability, T/C (second compound 0.000949 µM, first compound 0.01 µM): 97.5%
viability, T/C [1]: 81.8%
viability, T/C [2]: 69.3%
viability, T/C [3]: 67%
viability, T/C [4]: 54.2%
viability, T/C (second compound 0.003 µM, first compound 0.00316 µM): 109%
viability, T/C (second compound 0.003 µM, first compound 0.01 µM): 88.6%
viability, T/C [7]: 78.5%
viability, T/C [8]: 66.2%
viability, T/C [9]: 54.5%
viability, T/C [10]: 44.2%
viability, T/C (second compound 0.00949 µM, first compound 0.00316 µM): 80%
viability, T/C (second compound 0.00949 µM, first compound 0.01 µM): 77.7%
viability, T/C [13]: 60.9%
viability, T/C [14]: 58.5%
viability, T/C [15]: 57.5%
viability, T/C [16]: 45.3%
viability, T/C (second compound 0.03 µM, first compound 0.00316 µM): 56.4%
viability, T/C (second compound 0.03 µM, first compound 0.01 µM): 63.1%
viability, T/C [19]: 52.2%
viability, T/C [20]: 47.1%
viability, T/C [21]: 48.4%
viability, T/C [22]: 37.5%
viability, T/C (second compound 0.0949 µM, first compound 0.00316 µM): 42.4%
viability, T/C (second compound 0.0949 µM, first compound 0.01 µM): 47.1%
viability, T/C [25]: 40.6%
viability, T/C [26]: 36%
viability, T/C [27]: 25.7%
viability, T/C [28]: 30.1%
viability, T/C (second compound 0.3 µM, first compound 0.00316 µM): 34.5%
viability, T/C (second compound 0.3 µM, first compound 0.01 µM): 40.1%
viability, T/C [31]: 34.8%
viability, T/C [32]: 33.1%
viability, T/C [33]: 31.6%
viability, T/C [34]: 26.5%
